Laboratory results published in a melting point compilation (Tetko et al.; mined from patent text by program, amines drawn as free bases though some values may be those of a salt).

SMILES	melting point
CC(C)[C@H]1CC[C@H](Nc2ncc(Cc3ccc(O)nc3)c3ncccc23)CC1	232 to 235 °C
CCCOc1cccc(CCCOc2ccc3c(c2)C=C(C(=O)O)CCS3(=O)=O)c1	128 to 131 °C
CC(=O)OC1CSC(Oc2cnc(-c3ccncc3)c(Cl)c2)C(OC(C)=O)C1OC(C)=O (stereo not drawn)	153 °C
COCC1CC2CCC13CN(CC1CC1)CCC31c3cccc(O)c3OC21 (stereo not drawn)	128 to 129 °C
c1ccc(CN2CCC3(Cc4ccccc4O3)C2)cc1 (stereo not drawn)	43 to 45 °C
O=C(Nc1ccc(F)cc1)c1cccc(Cl)n1	98 °C
COCCOCOc1c(C(C)(C)C)cc(-c2noc(=O)[nH]2)cc1C(C)(C)C	112 to 114 °C
Cc1ccc(Oc2ccc(-n3cc(C(=O)O)nn3)cc2)c(O)c1	159 to 161 °C
CC1CCCN(c2cncc(C(=O)Nc3nnn[nH]3)n2)C1 (stereo not drawn)	236 to 238 °C
COC(=O)Cn1c(C(=O)Nc2nc(-c3cc(OC)ccc3OC)c(CC3CCCCC3)s2)cc2cc(C)cc(C)c21	89 to 92 °C
CC(C)(Oc1ccc(C(=O)CN2CCN(c3ccncc3)CC2)cc1)C(=O)O	163 to 167 °C
O=C(O)C1=Cc2ccccc2SC1C(F)(F)F (stereo not drawn)	187 to 190 °C
CS(=O)(=O)N(CCI)N(S(C)(=O)=O)S(C)(=O)=O	136 to 138 °C
Cc1nc(-n2cnn(CC3CC3)c2=O)sc1C(=O)NCc1ccncc1	169 to 170 °C
O=C(Nc1ccc(-n2nc(C(F)(F)F)cc2C2CC2)c(F)c1)C1(c2ccccc2)CCC1	72 to 76 °C
COC(=O)[C@H](O)CCCc1ccc(OCc2nc(-c3ccco3)oc2C)c(OC)c1	80 to 81 °C
CN(c1ccccc1)P(N)(N)=O	97 to 99 °C
NS(=O)(=O)c1ccc(NN=C2C(=O)Nc3ccc(C(=O)NCc4ccncc4)cc32)cc1	211 to 215 °C
CC(C)(C)OC(=O)N1CCN(C(=O)CI)CC1	69 to 71 °C
Cn1c2ccccc2c2oc(C(N)=O)cc(=O)c21	> 295 °C
CC1(C)CCn2c(nc(-c3ccncn3)cc2=O)N1	265 to 267 °C

SMILES	melting point
CC(Nc1ccc(F)c(F)c1)C(=O)O (stereo not drawn)	163 °C
COC(=O)[C@@H]1CC(=O)N(c2ccc(O)cc2)C1	123 °C
CCOC(=O)C1(Br)Oc2ccccc2OC1Br (stereo not drawn)	102 °C
CCc1cc(C(=O)O)c(Nc2ccc(F)cc2[N+](=O)[O-])s1	198 to 200 °C
COc1ccc(Cl)cc1-c1c(Sc2ccncc2)c(=O)[nH]c2ccc(C(F)(F)F)cc12	257 to 260 °C
CC(C(=O)O)c1cccc(NC(=O)NCC(=O)N2[C@@H](c3ccccc3F)SC[C@H]2C(=O)OC(C)(C)C)c1 (stereo partly drawn)	126 °C
COc1ccc(OC2COc3ccc(OC(C)c4ccc5ccccc5n4)cc3C2O)cc1 (stereo not drawn)	81 to 85 °C
CCCCn1c(=O)c(N)c(C)n(CCC(C)C)c1=O	68 to 70 °C
CCCCn1sc2nc3ccccc3n2c1=O	153 to 154 °C
COc1ccc(-c2c(C)c(NC(=O)CC(C)(C)C)c(C)c3c2OCC3c2ccc(C(C)C)cc2)cn1 (stereo not drawn)	120 to 123 °C
COc1ccc(C2=NN(CCCCN)C(=O)[C@H]3CC=CC[C@@H]23)cc1OC (relative stereo)	108 to 109 °C
COc1cc(C(=O)/C=C/c2ccc3c(c2)OCO3)cc(OC)c1OC	135 °C
CC(C)(C)c1cc(Sc2n[nH]c(=S)s2)cc(C(C)(C)C)c1O	181 to 186 °C
COc1cnn(C2CCCCO2)c(=O)c1Cl (stereo not drawn)	118 to 120 °C
CC(C)NC1=NS(=O)(=O)c2ccc(C3CCCCC3)cc2N1	131 to 133 °C
O=C(NC1CN(C(C(=O)O)c2ccc(OC(=O)c3ccccc3)cc2)C1=O)C(=NOC(=O)c1ccccc1)c1ccccc1 (stereo not drawn)	119 to 123 °C
COc1ccc(-c2cc(Nc3ccc(NS(C)(=O)=O)cc3)nc(C)n2)cc1OC	180 to 185 °C
COc1ccc2c(c1)CCC(CN1CCC3(CC1)C(=O)NCN3c1ccccc1)=C2	182 to 193 °C
CNC(=O)c1c[nH]c2ccc(C(=O)c3c(C)c(OC)c4ccccn34)cc2c1=O	324 °C
CC(C)(C)OC(=O)Nc1ccc2c3c(cc([N+](=O)[O-])c2c1)N(C(=O)C(F)(F)F)CC3CCl (stereo not drawn)	219 to 220 °C
CCCCCCCCCCCC(CCCCC(=O)N(c1ccccc1)c1ccccc1)OC (stereo not drawn)	51 to 52 °C

SMILES	melting point
Nc1c(C(=O)Nc2nnn[nH]2)oc2ccccc12	185 °C
COc1cn(-c2cccc(-c3cccnc3)c2F)nc(-c2ccnn2-c2ccccc2)c1=O	147 to 153 °C
O=C(c1ccccc1)c1ccc2nc(CS(=O)c3ccccn3)[nH]c2c1 (stereo not drawn)	142 to 145 °C
CCCCSc1cc(C(=O)O)cc(S(N)(=O)=O)c1Sc1ccccc1	192 to 193 °C
CN(C(F)F)S(=O)(=O)c1ccccc1S(N)(=O)=O	128 °C
NC1=C2C=NN=C2N(c2ccc(Cl)c(Cl)c2)CN1c1ccccc1	306 to 307 °C
C=CCOc1ccc(-c2ccc(C(=O)OCC)cc2)cc1	89 to 92 °C
N=C(N)NCCC[C@H](NC(=O)CNC(=O)C(CS)Cc1ccccc1)C(=O)O (stereo partly drawn)	120 to 137 °C
CSc1ccc(-n2cnc3ccc(-c4nnc(CCc5cccc(C(F)(F)F)c5)o4)cc32)cc1	167 to 168 °C
CCOC(=O)CCCn1c(C(=O)NCc2nnc(C)n2-c2sc(CC)cc2C(=O)c2ccccc2Cl)cc2cc(F)ccc21	127 to 128 °C
CCN(CC)P(N)(N)=S	54 to 58 °C
CCOC(=O)C1=C(C)Nc2nc(N3CCOCC3)nc(N3CCOCC3)c2C1c1ccsc1 (stereo not drawn)	208 °C
O=C1CCC(c2ccccc2)(c2ccccc2)[C@@H]2CN(C(=O)Cc3ccc(F)cc3)C[C@H]12 (racemic)	210 °C
CN(C)CCNC1=CC(=O)c2nc(-c3cc(F)ccc3F)oc2C1=O	162 to 163 °C
CCCN(CCN1CCN(c2ccc3[nH]ccc3c2)CC1)C1CCc2ccc(O)cc2C1 (stereo not drawn)	179 to 183 °C
COc1nc(-n2cc(C(=O)O)c(=O)c3cc(F)c(N4CC(N)C4)c(Cl)c32)c(F)cc1F	171 to 175 °C
COc1cc(C(=O)c2nc3ccccc3[nH]2)cc([N+](=O)[O-])c1OC	212 to 213 °C
CCOC(=O)CC(=O)c1cc(I)ccc1F	54 to 56 °C
O=C1CN2Cc3ccccc3N=C2N1	> 285 °C
CCC(C)(O)CCC1C(C)(OC(C)=O)CCC2C(C)(C)CCCC21C (stereo not drawn)	92 to 94 °C

Second part, the compound after the results:

melting point	SMILES
165 to 167 °C	COC(=O)[C@@H]1COC(=O)N1c1nc(-c2ccc(Br)cc2)cs1
69 to 71 °C	C[C@@H]1C(=O)N(CC(=O)CCc2ccccc2)[C@H]1SCc1ccccc1 (relative stereo)
226 to 228 °C	Cc1ccc(-c2ccc(C(=O)Nc3ccc4cc(CN5CCCC5)cnc4c3)cn2)cc1
128 to 132 °C	O=C(OCc1cc(-c2ccc(F)cc2F)ccc1O)c1cc(O)c2c(c1)C(=O)c1cccc(O)c1C2=O
191 to 195 °C	Cc1noc2cc3c(cc12)C1(CO3)C(=O)N(Cc2ccc(-c3cc(N)n[nH]3)cc2)c2ccccc21 (stereo not drawn)
163 to 165 °C	COc1cc2c(cc1O)C(Cc1c(OC)cccc1[N+](=O)[O-])N(C)CC2 (stereo not drawn)
209 to 211 °C	Fc1ccc2c(c1)C1=NCCN1C(Cl)=N2
184 to 186 °C	O=C(O)COc1cc2c(c(Cl)c1Cl)C(=O)C(C1CCCC1)C2 (stereo not drawn)
180 to 182 °C	CCOC(=O)N1C(=O)N(C(=O)OCC)C2(C1=O)C(=O)N(Cc1ccc(Cl)c(Cl)c1)c1ccccc12 (stereo not drawn)
126 to 127 °C	CCC(CC)O[C@@H]1C=C(C(=O)O)C[C@H](CC(O)CN=[N+]=[N-])[C@H]1NC(C)=O (stereo partly drawn)
280 to 282 °C	Cc1[nH]c(=O)ccc1C(=O)c1ccc(O)cc1
162 to 165 °C	c1ccc2c(c1)NCCc1nncn1-2
142 to 144 °C	CC(=O)Nc1ccc(Sc2ccccc2)cc1
124 °C	OCCSc1nc(-c2ccccc2)c2cc(Cl)ccc2n1
168 to 170 °C	CC12C=CC(=O)C=C1CCC1C3CC(OCCOC4CCCCO4)C(O)(C(=O)CCl)C3(C)CC(O)C12F (stereo not drawn)
118 to 120 °C	O=C(O)C(Sc1nc2c(s1)CCCC2)c1ccccc1 (stereo not drawn)
> 225 °C	N=C(NCc1ccn(C2=CC3=C(CC2)CCc2[nH]c(=O)c(=O)n(CC(=O)O)c23)c1)Nc1ccccc1
226 to 228 °C	O=C1c2ccccc2-c2c1c1ccccc1c(=O)n2CCCCCCCCCCCCn1c2c(c3ccccc3c1=O)C(=O)c1ccccc1-2

melting point	SMILES
116 to 118 °C	COc1cc2nc(C)nc(Cl)c2cc1OCCCN1CCOCC1
110 to 111 °C	O[C@H]1CC[C@H](c2ccc(Br)cc2)CC1
282 to 285 °C	COc1cc2ncc(C#N)c(Nc3ccc(F)cc3)c2cc1OC
> 361 °C	NC1=NS(=O)(=O)c2sc(Cl)cc2N1
42 to 43 °C	COc1ccc(C)cc1OCCO
150 °C	CC(C#Cc1ccc(Oc2cncc(Cl)c2)o1)N(O)C(N)=O (stereo not drawn)
147 to 148 °C	COCCOc1ccc(-c2nc(C(=O)Nc3nccs3)c(-c3ccc(Cl)cc3)[nH]2)cc1
135 to 137 °C	O=C(O)c1cc(F)cc(-c2cccc3cc(Cc4ccc(F)c(Cl)c4)sc23)c1
207 to 210 °C	Nc1cc(-c2ccncc2)cc2nc(-c3ccccc3)nn12
177 to 182 °C	CC12CCC(OC(=O)c3ccc(O)cc3)CC1=CCC1C2CCC2(C)C(=NO)CCC12 (stereo not drawn)
153 °C	CC(=O)N[C@@H](C)COc1ccc2nc(-c3cc(F)c(OCC4CC4)cc3F)oc2c1F
102 to 103 °C	COCCC(=O)Nc1cccc(-c2cccc3cc(Cc4cccc(C(F)(F)F)c4)sc23)c1
205 to 206 °C	O=C(O)C1=C(c2ccccc2)c2cc(Br)ccc2CO1
125 to 127 °C	CCOC(=O)c1ccc(OCCCN2CCN(c3ccc(Cl)nn3)CC2)cc1
188 to 194 °C	O=C1Nc2c(F)cc(F)cc2C1=O
126 to 128 °C	CSc1nc(OCCN2CCCC2=O)c(C#N)c(N2CCc3ccccc3CC2)n1
221 °C	CC(C)(C)OC(=O)N1CCC(OCc2ccccc2)C1CC(O)Cn1cnc2ccncc2c1=O (stereo not drawn)
217 to 221 °C	O=C(O)Cc1ccc(-c2cn3ccccc3n2)cc1
